Experimental data as given in patent US11498915B2, “TrkA Inhibitor” (Eli Lilly and Company, priority 2020, dated 2022).

Legend:
hTrkA [1] = biological target: T1, hTrkA (Homo sapiens, UniProt P04629); test: hTrk kinase TR-FRET assay (headed Binding Assays), hTrkA kinase domain; type: biochemical; set-up: hTrkA, aa: 441-796; details: hTrkA kinase domain aa 441-796, N = 4, read-out: Relative IC50 hTrkA, Binding Assays
Excerpt: (§1) Human Tropomyosin Receptor Kinase (hTrkA, hTrkB, hTrkC) Assays to Examine hTrk Kinase Inhibitors
(§2) The reaction of non-phosphorylated hTrk kinase domains (hTrkA, aa: 441-796, hTrkB, aa: 526-838 or hTrkC, aa: 510-825) with a fluorescein-labeled poly-GT substrate (poly-GT, Invitrogen) generates a fluorescein-labeled phosphorylated product. Binding of the terbium-labeled antibody (Invitrogen) to the phosphorylated tyrosine product brings the terbium and fluorescein into proximity, resulting in an increase in time-resolved fluorescence resonance energy transfer (TR-FRET). In the presence of an inhibitor, formation of phosphorylated product is reduced, and the TR-FRET value is decreased.
(§3) Inhibition of hTrk kinase activity: The activity of human tropomyosin receptor hTrk kinase is quantitated using TR-FRET technology (Invitrogen) as per vendor instructions. Briefly, compounds for dose-response studies are serially diluted in dimethyl sulfoxide (1:2 for 20 concentrations) using an acoustic dispensing instrument Echo Access (Labcyte) and dispensed into ProxiPlate-384 plus plates (PerkinElmer). […] EDTA and terbium-labeled antibody are added and plates are incubated at RT for one hour after which the TR-FRET signal is detected using an ENVISION® plate reader (Perkin-Elmer). The ratio of fluorescence at 520 to 495 nm is calculated. […]
Target sequence in this assay (P04629 441-796): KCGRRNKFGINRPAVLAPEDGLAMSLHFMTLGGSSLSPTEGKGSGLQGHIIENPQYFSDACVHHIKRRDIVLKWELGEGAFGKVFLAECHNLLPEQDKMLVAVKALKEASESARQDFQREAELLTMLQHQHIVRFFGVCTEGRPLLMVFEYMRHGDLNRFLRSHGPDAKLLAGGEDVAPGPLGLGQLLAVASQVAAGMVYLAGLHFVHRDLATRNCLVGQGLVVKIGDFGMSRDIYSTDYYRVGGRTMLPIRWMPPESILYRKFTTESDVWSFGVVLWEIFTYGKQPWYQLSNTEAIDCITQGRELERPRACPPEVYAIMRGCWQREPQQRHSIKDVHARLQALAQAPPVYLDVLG

hTrkB [2] = biological target: T2, hTrkB (Homo sapiens, UniProt Q16620); test: hTrk kinase TR-FRET assay (headed Binding Assays), hTrkB kinase domain; type: biochemical; set-up: hTrkB, aa: 526-838; details: hTrkB kinase domain aa 526-838, N = 1, read-out: Relative IC50 hTrkB, Binding Assays
Excerpt: as §1, §2, §3
Target sequence in this assay (Q16620 510-822): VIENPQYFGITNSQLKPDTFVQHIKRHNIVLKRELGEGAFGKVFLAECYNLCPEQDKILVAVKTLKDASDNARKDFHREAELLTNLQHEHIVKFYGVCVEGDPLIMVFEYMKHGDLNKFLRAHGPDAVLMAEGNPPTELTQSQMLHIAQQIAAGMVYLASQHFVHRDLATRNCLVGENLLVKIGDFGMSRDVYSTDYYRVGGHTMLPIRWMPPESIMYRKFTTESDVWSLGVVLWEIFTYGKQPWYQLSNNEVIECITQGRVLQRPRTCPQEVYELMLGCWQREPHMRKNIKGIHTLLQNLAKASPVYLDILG

hTrkC [3] = biological target: T3, hTrkC (Homo sapiens, UniProt Q16288); test: hTrk kinase TR-FRET assay (headed Binding Assays), hTrkC kinase domain; type: biochemical; set-up: hTrkC, aa: 510-825; details: hTrkC kinase domain aa 510-825, N = 1, read-out: Relative IC50 hTrkC, Binding Assays
Excerpt: as §1, §2, §3
Target sequence in this assay (Q16288 510-825 isoform Q16288-3): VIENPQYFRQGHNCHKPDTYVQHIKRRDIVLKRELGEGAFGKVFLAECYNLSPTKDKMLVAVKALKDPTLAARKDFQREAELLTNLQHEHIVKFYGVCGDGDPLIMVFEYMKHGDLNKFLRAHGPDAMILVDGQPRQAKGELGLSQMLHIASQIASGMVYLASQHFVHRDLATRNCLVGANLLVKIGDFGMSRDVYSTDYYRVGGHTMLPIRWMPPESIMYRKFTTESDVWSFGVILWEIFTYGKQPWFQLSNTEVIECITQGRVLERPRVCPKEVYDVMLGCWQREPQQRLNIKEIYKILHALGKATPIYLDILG

hTrkA [4] = biological target: T1, hTrkA; test: PathHunter cell-based assay, inhibition of SH2 domain protein recruitment, hTrkA-p75 U2OS cells; set-up: host or cells: U2OS (human bone osteosarcoma epithelial cells), PathHunter hTrkA-p75
Excerpt: (§4) In Vitro Inhibition of SH2 Domain Protein Recruitment in Human Bone Osteosarcoma Epithelial Cells by Human Tropomyosin Receptor Kinase (hTrk) Inhibitors
(§5) Activation of hTrkA, TrkB or TrkC is examined using PathHunter® (DiscoverX) enzyme fragment complementation technology. In this approach, one fragment of β-galactosidase (β-gal) ProLink (PK) is fused to the C-terminal of the Trk receptor and co-expressed with a phosphotyrosine SH2 domain protein fused with the remaining fragment of β-gal, Enzyme Acceptor (EA), in human Bone Osteosarcoma Epithelial (hU2OS) cells also expressing the p75 neurotrophic receptor (DiscoverX). Activation of hTrk receptors by agonists results in receptor phosphorylation. The SH2-EA fusion protein binds the phosphorylated hTrk receptor resulting in complementation of PK and EA to form an active β-gal enzyme. β-gal enzymatic activity is quantitatively measured using a chemiluminescent substrate in the PathHunter® detection kit (DiscoverX). […]
(§6) Inhibition of hTrk kinase activity: The activity of hTrkA and hTrkC kinase is quantitated using Pathhunter® technology (DiscoverX) as per vendor instructions.
(§7) Briefly, on the assay day, compounds for dose-response studies are serially diluted in dimethyl sulfoxide (1:3 for 10 concentrations) using an acoustic dispensing instrument Echo Access (Labcyte) and dispensed into cell plates that are subsequently incubated at room temperature (RT) for one hour. […] Pathhunter® detection reagents (DiscoverX) are added and plates are read in an ENVISION® plate reader (Perkin-Elmer) at 700 nm after 1 h incubation at RT in the dark. […]
(§8) Data Analysis: The data are converted into % Inhibition and relative IC50 values are calculated from the top-bottom range of the concentration response curve using a four-parameter logistic curve fitting program (GENEDATA SCREENER® v13.0.5) with the equation Y=Bottom+(Top-Bottom)/(1+10^((Log IC50−X)*HillSlope)). […]
Target sequence in this assay (P04629 33-796): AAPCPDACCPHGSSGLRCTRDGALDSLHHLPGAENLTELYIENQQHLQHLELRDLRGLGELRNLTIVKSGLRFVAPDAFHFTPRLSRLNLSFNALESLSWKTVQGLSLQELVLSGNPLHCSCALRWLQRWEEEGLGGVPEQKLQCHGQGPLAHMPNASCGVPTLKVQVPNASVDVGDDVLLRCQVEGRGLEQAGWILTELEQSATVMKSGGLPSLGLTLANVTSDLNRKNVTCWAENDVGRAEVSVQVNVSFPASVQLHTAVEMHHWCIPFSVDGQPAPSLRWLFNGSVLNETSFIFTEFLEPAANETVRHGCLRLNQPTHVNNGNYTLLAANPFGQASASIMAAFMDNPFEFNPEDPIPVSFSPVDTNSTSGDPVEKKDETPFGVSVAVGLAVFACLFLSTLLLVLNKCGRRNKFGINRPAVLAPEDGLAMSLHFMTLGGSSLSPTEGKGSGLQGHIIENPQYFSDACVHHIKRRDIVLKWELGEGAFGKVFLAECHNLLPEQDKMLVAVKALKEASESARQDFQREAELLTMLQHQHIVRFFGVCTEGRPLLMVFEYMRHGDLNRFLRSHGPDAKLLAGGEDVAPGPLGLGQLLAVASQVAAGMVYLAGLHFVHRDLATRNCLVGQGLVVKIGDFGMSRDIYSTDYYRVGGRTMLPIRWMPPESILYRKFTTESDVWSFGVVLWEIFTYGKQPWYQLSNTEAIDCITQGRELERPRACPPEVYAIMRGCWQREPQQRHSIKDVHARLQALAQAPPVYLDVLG

hTrkB [5] = biological target: T2, hTrkB; test: PathHunter cell-based assay, inhibition of SH2 domain protein recruitment, hTrkB-p75 U2OS cells; set-up: host or cells: U2OS (human bone osteosarcoma epithelial cells), PathHunter hTrkB-p75
Excerpt: as §4, §5, §6, §7, §8
Target sequence in this assay (Q16620 32-822): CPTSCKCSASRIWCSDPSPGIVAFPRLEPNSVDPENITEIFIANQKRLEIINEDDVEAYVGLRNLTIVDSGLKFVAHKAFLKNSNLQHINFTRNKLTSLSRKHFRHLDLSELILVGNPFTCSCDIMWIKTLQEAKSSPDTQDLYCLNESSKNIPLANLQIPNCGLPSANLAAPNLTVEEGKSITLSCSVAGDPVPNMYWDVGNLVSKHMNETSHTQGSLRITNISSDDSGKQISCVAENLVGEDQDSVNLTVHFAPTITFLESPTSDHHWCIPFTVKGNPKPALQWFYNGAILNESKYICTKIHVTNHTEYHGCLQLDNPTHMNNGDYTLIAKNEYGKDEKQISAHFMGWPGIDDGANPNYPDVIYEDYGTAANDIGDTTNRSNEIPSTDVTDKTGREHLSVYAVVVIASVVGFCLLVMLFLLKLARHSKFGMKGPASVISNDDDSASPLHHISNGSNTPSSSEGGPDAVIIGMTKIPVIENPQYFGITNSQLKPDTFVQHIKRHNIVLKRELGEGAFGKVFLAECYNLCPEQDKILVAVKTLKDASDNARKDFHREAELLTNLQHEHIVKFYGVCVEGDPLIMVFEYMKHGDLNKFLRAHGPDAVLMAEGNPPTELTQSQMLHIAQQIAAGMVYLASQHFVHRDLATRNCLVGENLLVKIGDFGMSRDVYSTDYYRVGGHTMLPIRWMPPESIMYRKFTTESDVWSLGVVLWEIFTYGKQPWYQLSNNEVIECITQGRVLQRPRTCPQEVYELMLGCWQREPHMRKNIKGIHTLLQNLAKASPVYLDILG

hTrkC [6] = biological target: T3, hTrkC; test: PathHunter cell-based assay, inhibition of SH2 domain protein recruitment, hTrkC-p75 U2OS cells; set-up: host or cells: U2OS (human bone osteosarcoma epithelial cells), PathHunter hTrkC-p75
Excerpt: as §4, §5, §6, §7, §8
Target sequence in this assay (Q16288 32-839): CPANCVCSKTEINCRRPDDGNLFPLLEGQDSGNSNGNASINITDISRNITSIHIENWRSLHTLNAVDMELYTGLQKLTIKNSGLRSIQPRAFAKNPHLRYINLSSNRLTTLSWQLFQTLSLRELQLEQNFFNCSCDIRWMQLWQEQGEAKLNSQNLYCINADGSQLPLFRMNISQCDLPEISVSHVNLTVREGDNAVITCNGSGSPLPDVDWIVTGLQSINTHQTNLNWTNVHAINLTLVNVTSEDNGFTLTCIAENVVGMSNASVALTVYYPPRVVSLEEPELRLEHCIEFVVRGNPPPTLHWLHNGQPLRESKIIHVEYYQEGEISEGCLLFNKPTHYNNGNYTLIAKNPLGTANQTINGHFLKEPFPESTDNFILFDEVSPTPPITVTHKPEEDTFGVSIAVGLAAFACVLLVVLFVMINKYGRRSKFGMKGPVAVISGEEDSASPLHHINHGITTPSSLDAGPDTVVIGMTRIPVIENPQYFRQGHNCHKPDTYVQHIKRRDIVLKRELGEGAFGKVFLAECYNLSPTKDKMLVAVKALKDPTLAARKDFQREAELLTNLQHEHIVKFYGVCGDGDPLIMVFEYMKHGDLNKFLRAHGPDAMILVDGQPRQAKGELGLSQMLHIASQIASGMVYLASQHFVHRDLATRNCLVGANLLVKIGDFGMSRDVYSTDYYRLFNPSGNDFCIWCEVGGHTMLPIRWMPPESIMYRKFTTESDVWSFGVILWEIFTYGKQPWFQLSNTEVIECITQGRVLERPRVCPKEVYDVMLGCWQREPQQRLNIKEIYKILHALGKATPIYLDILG

Trk A = Trk A (Homo sapiens, UniProt P04629); test: Trk A IC50 values listed in Table 2 of U.S. Pat. No. 9,815,846; details: 14 divided by 0.069; phenyl ring versus pyridine ring
[7] = Table 2 comparative data, Example 1 values are the PathHunter values of Table 1, read-out: hTrkA IC50
[8] = Table 2 comparative data, Example 1 values are the PathHunter values of Table 1, read-out: hTrkB IC50
[9] = Table 2 comparative data, Example 1 values are the PathHunter values of Table 1, read-out: hTrkC IC50

Trk A, sequence (P04629 33-796, species assumed): as the sequence (P04629 33-796) above

Cn1ccc(-c2cc(C(=O)Nc3cncc(C(N)=O)c3-c3ccccn3)c(F)cc2C(F)(F)F)n1 [Example 1, 5-[[2-fluoro-5-(1-methylpyrazol-3-yl)-4-(trifluoromethyl)benzoyl]amino]-4-(2-pyridyl)pyridine-3-carboxamide]
IC50 (hTrkA [1]): 1.09 nM
IC50 (hTrkB [2]): > 4290 nM
IC50 (hTrkC [3]): 8360 nM
IC50 (hTrkA [4]; hU2OS hTrkA-p75 cells, hNGF 27 ng/ml, N = 32, read-out: Relative IC50 hTrkA, PathHunter cell-based assay): 1.24 nM
IC50 (hTrkB [5]; hU2OS hTrkB-p75 cells, hBDNF 20 ng/ml, N = 25, read-out: Relative IC50 hTrkB, PathHunter cell-based assay): 6700 nM
IC50 (hTrkC [6]; hU2OS hTrkC-p75 cells, hNT-3 29 ng/ml, N = 24, read-out: Relative IC50 hTrkC, PathHunter cell-based assay): 9010 nM

Cn1ccc(-c2cc(C(=O)Nc3cc(C(N)=O)cnc3-c3ccccc3)ccc2C(F)(F)F)n1 [Example 89 of US Patent No. 9815846]
IC50 (hTrkA [4]; [7]): 1.55 nM
IC50 (hTrkB [5]; [8]): 713 nM
IC50 (hTrkC [6]; [9]): 452 nM

Cn1ccc(-c2cc(C(=O)Nc3cc4c(nc3-c3ccccn3)CCNC4=O)c(F)cc2C(F)(F)F)n1 [Example 141 of US Patent No. 9815846]
IC50 (hTrkA [4]; [7]): 11.1 nM
IC50 (hTrkB [5]; [8]): > 47900 nM
IC50 (hTrkC [6]; [9]): 37800 nM

Cn1ccc(-c2cc(C(=O)Nc3cc4c(nc3-c3ccccc3)CCNC4=O)c(F)cc2C(F)(F)F)n1 [Example 152]
effect on the potency at TrkA, Example 141 IC50 divided by Example 152 IC50 (Trk A): 202.9 fold
